In ChEMBL document CHEMBL5715954, “Silencing c-Myc translation as a therapeutic strategy through targeting PI3Kδ and CK1ε in hematological malignancies” (Blood, 2017):

How the values were obtained:
Set-up in all cases: scale not given: the % may be the effect or the level left
[1] = target: T1, Myosin-IIIb (Homo sapiens) (UniProt Q8WXR4); experiment: Inhibition of human MYO3b assessed as enzyme activity at 1 uM using myelin basic protein as substrate preincubated for 20 mins followed by [gamma-33P]-ATP addition and measured after 120 mins by radiometric Hot-SpotSM Kinase assay relative to control
T1 sequence (whole entry): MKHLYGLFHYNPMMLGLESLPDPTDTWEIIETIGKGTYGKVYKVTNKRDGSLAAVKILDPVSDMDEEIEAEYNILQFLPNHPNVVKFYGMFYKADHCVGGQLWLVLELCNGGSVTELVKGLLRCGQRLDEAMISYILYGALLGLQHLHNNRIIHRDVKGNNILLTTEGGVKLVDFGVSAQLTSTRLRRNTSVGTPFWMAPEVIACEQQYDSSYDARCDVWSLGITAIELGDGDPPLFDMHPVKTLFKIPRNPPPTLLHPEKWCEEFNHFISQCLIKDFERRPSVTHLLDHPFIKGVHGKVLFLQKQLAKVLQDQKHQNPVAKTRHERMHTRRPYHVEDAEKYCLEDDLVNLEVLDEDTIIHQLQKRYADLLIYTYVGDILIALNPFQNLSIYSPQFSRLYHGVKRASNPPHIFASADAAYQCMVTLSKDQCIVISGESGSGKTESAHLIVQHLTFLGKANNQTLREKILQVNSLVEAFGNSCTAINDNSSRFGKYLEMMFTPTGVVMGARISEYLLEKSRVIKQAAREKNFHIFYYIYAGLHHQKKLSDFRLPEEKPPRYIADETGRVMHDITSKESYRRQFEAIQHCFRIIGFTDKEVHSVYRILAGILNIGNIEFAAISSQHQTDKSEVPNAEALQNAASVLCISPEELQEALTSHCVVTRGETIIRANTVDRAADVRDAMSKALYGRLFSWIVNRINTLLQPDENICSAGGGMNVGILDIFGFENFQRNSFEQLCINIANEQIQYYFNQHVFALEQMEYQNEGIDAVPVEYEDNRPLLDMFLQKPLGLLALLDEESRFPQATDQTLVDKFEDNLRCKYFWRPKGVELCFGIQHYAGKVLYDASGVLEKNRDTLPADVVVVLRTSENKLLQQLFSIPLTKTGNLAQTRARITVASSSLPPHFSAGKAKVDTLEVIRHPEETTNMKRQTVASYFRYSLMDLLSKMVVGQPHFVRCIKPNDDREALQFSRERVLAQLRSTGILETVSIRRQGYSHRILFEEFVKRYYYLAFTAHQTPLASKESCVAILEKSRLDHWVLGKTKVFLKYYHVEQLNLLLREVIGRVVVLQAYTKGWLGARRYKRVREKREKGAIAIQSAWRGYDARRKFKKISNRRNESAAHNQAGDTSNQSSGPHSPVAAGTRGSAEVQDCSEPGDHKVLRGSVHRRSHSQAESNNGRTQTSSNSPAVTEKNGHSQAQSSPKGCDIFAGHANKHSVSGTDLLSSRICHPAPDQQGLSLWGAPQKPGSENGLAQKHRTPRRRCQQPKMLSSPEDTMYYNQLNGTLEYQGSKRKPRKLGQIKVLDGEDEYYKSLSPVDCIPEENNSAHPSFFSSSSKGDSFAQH

[2] = target: T2, MAP/microtubule affinity-regulating kinase 4 (Homo sapiens) (UniProt Q96L34); experiment: Inhibition of human MARK4 assessed as enzyme activity at 1 uM using KKKVSRSGLYRSPSMPENLNRPR as substrate preincubated for 20 mins followed by [gamma-33P]-ATP addition and measured after 120 mins by radiometric Hot-SpotSM Kinase assay relative to control
T2 sequence (whole entry): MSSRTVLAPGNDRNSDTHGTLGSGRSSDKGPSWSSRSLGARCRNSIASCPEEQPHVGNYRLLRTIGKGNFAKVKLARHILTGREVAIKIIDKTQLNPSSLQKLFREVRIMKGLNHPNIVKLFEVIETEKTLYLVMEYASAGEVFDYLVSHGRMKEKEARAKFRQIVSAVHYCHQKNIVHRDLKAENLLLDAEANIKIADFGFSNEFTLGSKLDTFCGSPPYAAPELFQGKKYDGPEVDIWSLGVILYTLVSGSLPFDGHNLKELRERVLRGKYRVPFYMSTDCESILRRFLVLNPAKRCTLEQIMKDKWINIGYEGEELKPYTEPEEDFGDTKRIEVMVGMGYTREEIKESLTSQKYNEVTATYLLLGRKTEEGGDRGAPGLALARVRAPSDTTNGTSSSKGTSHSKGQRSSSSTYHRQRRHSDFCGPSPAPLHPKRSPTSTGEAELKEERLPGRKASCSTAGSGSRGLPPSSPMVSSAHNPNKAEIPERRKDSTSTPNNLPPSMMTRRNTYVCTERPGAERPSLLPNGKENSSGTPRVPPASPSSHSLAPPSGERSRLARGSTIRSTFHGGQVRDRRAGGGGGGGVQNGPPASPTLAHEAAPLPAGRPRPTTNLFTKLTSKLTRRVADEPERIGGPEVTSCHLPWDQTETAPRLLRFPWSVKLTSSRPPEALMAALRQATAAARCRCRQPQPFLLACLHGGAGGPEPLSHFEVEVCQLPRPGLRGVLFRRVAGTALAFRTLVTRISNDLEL

[3] = target: Tyrosine-protein kinase FRK (Homo sapiens) (UniProt P42685); experiment: Inhibition of human FRK assessed as enzyme activity at 1 uM using poly[Glu:Tyr] (4:1) as substrate preincubated for 20 mins followed by [gamma-33P]-ATP addition and measured after 120 mins by radiometric Hot-SpotSM Kinase assay relative to control
Chain of Tyrosine-protein kinase FRK (Homo sapiens) (P42685 whole entry): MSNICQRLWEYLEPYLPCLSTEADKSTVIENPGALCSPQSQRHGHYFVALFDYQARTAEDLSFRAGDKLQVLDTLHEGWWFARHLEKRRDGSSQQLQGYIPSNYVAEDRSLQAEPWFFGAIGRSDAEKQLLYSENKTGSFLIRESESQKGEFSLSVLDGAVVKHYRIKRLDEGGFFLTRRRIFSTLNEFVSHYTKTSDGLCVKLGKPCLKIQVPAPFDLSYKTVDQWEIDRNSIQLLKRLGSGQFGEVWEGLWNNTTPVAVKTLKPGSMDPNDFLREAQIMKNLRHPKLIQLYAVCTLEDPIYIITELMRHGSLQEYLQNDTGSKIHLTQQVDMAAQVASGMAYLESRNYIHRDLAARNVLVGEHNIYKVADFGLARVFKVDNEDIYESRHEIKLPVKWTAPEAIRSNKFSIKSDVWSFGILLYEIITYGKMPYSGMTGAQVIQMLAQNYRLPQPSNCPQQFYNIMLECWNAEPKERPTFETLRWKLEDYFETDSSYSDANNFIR

[4] = target: T3, Tyrosine-protein kinase ZAP-70 (Homo sapiens) (UniProt P43403); experiment: Inhibition of human ZAP70 assessed as enzyme activity at 1 uM using poly[Glu:Tyr] (4:1) as substrate preincubated for 20 mins followed by [gamma-33P]-ATP addition and measured after 120 mins by radiometric Hot-SpotSM Kinase assay relative to control
T3 sequence (whole entry): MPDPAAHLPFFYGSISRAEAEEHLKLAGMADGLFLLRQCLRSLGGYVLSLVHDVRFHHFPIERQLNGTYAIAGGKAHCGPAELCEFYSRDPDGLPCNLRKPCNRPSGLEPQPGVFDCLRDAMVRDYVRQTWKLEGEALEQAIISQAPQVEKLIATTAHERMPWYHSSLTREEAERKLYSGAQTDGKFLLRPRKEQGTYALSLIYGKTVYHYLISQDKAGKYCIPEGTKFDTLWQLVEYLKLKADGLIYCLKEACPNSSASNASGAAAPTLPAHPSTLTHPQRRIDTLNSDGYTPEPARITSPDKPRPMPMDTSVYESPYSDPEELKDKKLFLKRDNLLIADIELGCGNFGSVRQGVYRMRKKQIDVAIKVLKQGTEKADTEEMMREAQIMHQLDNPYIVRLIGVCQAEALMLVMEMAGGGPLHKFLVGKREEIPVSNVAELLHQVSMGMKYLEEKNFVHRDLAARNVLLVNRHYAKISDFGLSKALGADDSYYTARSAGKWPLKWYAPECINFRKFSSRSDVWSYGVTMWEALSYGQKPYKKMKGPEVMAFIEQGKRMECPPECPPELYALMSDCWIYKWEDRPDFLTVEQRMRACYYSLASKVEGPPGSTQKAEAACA

Row | SMILES | Activity [1] [%] | Activity [2] [%] | Activity [3] [%] | Activity [4] [%]
1 | CC[C@H](Nc1ncnc2[nH]cnc12)c1nc2cccc(F)c2c(=O)n1-c1ccccc1 | 93.5 | 97 | 94 | 100
2 | C[C@H](Nc1ncnc2nc[nH]c12)c1cc2cccc(Cl)c2c(=O)n1-c1ccccc1 | 114 | 109 | 96.9 | 99.7
3 | CC(C)Oc1ccc(-c2nn([C@@H](C)c3oc4ccc(F)cc4c(=O)c3-c3cccc(F)c3)c3ncnc(N)c23)cc1F [UMBRALISIB] | 121 | 112 | 95.3 | 99.4
